Source: ChEMBL document CHEMBL4265943, “Design and synthesis of potent dual inhibitors of JAK2 and HDAC based on fusing the pharmacophores of XL019 and vorinostat” (Eur J Med Chem, 2018)

Experiments:
[1] = target: Tyrosine-protein kinase JAK2 (Homo sapiens, UniProt O60674); test: Inhibition of human JAK2 using poly(Glu:Tyr)(4:1) as substrate preincubated for 20 mins followed by [gamma33P]ATP addition measured after 120 mins by ion exchange filter paper method
[2] = target: T1, Tyrosine-protein kinase JAK3 (Homo sapiens, UniProt P52333); test: Inhibition of human JAK3 using poly(Glu:Tyr)(4:1) as substrate preincubated for 20 mins followed by [gamma33P]ATP addition measured after 120 mins by ion exchange filter paper method
T1 sequence (P52333 whole entry): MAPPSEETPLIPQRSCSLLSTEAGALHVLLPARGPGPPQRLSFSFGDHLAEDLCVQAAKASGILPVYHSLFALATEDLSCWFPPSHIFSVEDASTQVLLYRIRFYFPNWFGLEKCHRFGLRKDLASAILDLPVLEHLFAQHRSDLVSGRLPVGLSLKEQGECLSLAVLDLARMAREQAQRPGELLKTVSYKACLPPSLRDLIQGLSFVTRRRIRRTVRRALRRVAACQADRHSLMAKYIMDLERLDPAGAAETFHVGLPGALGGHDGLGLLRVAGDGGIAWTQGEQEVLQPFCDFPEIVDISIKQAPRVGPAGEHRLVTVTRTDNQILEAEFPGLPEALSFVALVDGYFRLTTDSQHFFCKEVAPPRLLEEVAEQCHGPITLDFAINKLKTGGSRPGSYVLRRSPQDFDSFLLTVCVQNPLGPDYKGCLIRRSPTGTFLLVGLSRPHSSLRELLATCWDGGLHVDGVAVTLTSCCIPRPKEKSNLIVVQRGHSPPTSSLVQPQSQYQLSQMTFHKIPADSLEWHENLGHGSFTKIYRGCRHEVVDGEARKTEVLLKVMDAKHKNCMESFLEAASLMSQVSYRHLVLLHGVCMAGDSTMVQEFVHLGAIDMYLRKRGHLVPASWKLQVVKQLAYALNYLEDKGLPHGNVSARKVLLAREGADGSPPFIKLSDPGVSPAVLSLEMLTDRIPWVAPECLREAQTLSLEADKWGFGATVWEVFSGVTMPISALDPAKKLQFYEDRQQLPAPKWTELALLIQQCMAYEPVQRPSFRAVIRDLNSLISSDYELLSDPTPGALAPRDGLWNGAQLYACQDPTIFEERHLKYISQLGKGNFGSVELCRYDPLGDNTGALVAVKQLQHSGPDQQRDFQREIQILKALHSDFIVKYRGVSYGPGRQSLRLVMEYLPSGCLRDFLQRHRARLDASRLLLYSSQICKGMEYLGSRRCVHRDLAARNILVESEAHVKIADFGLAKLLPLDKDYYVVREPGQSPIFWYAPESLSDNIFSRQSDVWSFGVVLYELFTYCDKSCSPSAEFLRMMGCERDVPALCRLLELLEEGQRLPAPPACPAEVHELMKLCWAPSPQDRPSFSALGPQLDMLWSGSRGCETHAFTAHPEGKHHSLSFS

[3] = target: Non-receptor tyrosine-protein kinase TYK2 (Homo sapiens, UniProt P29597); test: Inhibition of human TYK2 using KKSRGDYMTMQIG as substrate preincubated for 20 mins followed by [gamma33P]ATP addition measured after 120 mins by ion exchange filter paper method
[4] = target: Tyrosine-protein kinase JAK1 (Homo sapiens, UniProt P23458); test: Inhibition of human JAK1 using poly(Glu:Tyr)(4:1) as substrate preincubated for 20 mins followed by [gamma33P]ATP addition measured after 120 mins by ion exchange filter paper method
Homo sapiens = species on record: Homo sapiens; test: Selectivity ratio of IC50 for human JAK3 to IC50 for human JAK2
MDA-MB-231 [5] = test: Antiproliferative activity against human MDA-MB-231 cells after 72 hrs by MTT assay; type: functional, cell-based; conditions: MDA-MB-231, 72 h
MCF7 [6] = test: Antiproliferative activity against human MCF7 cells after 72 hrs by MTT assay; type: functional, cell-based; conditions: MCF7, 72 h
PC-3 [7] = test: Antiproliferative activity against human PC3 cells after 72 hrs by MTT assay; type: functional, cell-based; conditions: PC-3, 72 h
[8] = Antiproliferative activity against human AC10 cells after 72 hrs by MTT assay; type: cell-based
[9] = Selectivity index, ratio of CC50 for human AC10 cells to IC50 for human HCT116 cells; type: toxicity; conditions: AC10 cells (CC50) and HCT116 cells (IC50)
[10] = Selectivity index, ratio of CC50 for mouse TAMH cells to IC50 for human HCT116 cells; type: toxicity; conditions: TAMH cells (CC50) and HCT116 cells (IC50)
[11] = Selectivity index, ratio of CC50 for mouse TAMH cells to IC50 for human MCF7 cells; type: toxicity; conditions: TAMH cells (CC50) and MCF7 cells (IC50)
[12] = Selectivity index, ratio of CC50 for human AC10 cells to IC50 for human PC3 cells; type: toxicity; conditions: AC10 cells (CC50) and PC3 cells (IC50)
[13] = Selectivity index, ratio of CC50 for mouse TAMH cells to IC50 for human PC3 cells; type: toxicity; conditions: TAMH cells (CC50) and PC3 cells (IC50)
PC-3 [14] = test: Induction of apoptosis in human PC3 cells assessed as live cells at 0.71 uM after 72 hrs by Annexin V-FITC/propidium iodide staining based flow cytometry (reference value: 96.36%); type: functional
PC-3 [15] = test: Induction of apoptosis in human PC3 cells assessed as late apoptotic cells at 0.71 uM after 72 hrs by Annexin V-FITC/propidium iodide staining based flow cytometry (reference value: 1.01%); type: functional
PC-3 [16] = test: Induction of apoptosis in human PC3 cells assessed as necrotic cells at 0.71 uM after 72 hrs by Annexin V-FITC/propidium iodide staining based flow cytometry (reference value: 0.66%); type: functional
HCT-116 [17] = test: Induction of apoptosis in human HCT116 cells assessed as early apoptotic cells at 1.14 uM after 72 hrs by Annexin V-FITC/propidium iodide staining based flow cytometry (reference value: 1.31%); type: functional
HCT-116 [18] = test: Induction of apoptosis in human HCT116 cells assessed as late apoptotic cells at 1.14 uM after 72 hrs by Annexin V-FITC/propidium iodide staining based flow cytometry (reference value: 1.45%); type: functional
MCF7 [19] = test: Induction of apoptosis in human MCF7 cells assessed as live cells at 0.86 uM after 72 hrs by Annexin V-FITC/propidium iodide staining based flow cytometry (reference value: 95.05%); type: functional
MCF7 [20] = test: Induction of apoptosis in human MCF7 cells assessed as early apoptotic cells at 0.86 uM after 72 hrs by Annexin V-FITC/propidium iodide staining based flow cytometry (reference value: 1.19%); type: functional
MDA-MB-231 [21] = test: Induction of apoptosis in human MDA-MB-231 cells assessed as live cells at 0.9 uM after 72 hrs by Annexin V-FITC/propidium iodide staining based flow cytometry (reference value: 90.98%); type: functional
MDA-MB-231 [22] = test: Induction of apoptosis in human MDA-MB-231 cells assessed as late apoptotic cells at 0.9 uM after 72 hrs by Annexin V-FITC/propidium iodide staining based flow cytometry (reference value: 2.12%); type: functional

Non-receptor tyrosine-protein kinase TYK2, sequence (P29597 whole entry): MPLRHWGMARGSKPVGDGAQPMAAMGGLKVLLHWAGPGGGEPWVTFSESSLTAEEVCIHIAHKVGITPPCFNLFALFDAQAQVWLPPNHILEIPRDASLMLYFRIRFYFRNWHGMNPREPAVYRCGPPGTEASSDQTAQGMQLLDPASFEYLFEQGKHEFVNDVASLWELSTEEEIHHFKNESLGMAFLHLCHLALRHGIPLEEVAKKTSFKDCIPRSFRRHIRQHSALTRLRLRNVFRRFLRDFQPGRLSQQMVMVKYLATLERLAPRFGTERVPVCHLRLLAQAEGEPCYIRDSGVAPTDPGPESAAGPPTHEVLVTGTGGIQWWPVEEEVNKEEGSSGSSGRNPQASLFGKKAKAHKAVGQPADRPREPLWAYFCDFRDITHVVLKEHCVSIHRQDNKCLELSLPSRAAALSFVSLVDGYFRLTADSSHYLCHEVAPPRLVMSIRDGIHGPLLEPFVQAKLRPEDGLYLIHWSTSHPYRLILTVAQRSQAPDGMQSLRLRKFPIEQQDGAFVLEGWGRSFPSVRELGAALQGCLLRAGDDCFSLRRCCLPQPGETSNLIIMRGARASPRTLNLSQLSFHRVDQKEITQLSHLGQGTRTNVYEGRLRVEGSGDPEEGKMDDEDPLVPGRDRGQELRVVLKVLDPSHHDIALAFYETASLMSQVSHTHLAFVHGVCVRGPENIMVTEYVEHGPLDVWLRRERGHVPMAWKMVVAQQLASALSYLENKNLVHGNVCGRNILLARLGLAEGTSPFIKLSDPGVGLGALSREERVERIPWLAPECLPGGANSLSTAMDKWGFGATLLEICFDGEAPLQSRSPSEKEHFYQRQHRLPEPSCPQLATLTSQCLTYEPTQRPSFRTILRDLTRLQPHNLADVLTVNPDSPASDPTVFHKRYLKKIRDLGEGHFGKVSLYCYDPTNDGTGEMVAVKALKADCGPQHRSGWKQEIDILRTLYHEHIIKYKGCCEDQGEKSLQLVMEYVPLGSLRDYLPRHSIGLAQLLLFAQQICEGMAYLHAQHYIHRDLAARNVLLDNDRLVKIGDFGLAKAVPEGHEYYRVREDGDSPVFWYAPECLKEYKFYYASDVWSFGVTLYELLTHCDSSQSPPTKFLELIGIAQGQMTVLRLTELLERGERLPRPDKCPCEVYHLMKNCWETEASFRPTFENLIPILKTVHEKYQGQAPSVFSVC
Tyrosine-protein kinase JAK2, sequence (O60674 whole entry): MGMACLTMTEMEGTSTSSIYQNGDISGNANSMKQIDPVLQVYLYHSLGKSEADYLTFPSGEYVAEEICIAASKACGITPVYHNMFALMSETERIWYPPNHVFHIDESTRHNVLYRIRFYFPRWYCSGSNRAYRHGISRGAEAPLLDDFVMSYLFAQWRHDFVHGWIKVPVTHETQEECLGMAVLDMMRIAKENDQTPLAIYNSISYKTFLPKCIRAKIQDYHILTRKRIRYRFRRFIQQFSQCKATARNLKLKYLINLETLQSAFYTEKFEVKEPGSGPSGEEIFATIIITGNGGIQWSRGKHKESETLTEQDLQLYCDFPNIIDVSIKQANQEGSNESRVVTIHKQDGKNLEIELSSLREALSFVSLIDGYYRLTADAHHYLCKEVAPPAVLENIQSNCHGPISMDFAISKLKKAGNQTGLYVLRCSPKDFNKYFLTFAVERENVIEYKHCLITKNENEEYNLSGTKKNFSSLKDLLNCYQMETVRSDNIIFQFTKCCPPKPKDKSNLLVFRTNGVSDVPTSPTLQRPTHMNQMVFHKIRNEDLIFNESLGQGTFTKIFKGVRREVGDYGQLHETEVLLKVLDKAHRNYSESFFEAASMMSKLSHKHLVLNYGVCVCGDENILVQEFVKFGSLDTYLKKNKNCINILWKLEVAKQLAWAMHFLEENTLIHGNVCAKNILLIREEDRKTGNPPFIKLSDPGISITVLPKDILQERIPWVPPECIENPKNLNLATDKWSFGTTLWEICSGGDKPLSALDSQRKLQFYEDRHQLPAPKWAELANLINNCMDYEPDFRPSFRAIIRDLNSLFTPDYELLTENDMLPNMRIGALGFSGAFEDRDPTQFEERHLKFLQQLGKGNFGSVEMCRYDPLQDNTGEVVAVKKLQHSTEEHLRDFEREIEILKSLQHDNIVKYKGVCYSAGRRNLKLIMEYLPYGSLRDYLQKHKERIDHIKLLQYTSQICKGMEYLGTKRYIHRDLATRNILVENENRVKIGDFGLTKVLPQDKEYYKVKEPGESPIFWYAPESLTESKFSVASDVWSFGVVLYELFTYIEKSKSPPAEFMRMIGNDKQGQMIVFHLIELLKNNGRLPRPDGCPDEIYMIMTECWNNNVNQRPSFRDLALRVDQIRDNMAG
Tyrosine-protein kinase JAK1, sequence (P23458 whole entry): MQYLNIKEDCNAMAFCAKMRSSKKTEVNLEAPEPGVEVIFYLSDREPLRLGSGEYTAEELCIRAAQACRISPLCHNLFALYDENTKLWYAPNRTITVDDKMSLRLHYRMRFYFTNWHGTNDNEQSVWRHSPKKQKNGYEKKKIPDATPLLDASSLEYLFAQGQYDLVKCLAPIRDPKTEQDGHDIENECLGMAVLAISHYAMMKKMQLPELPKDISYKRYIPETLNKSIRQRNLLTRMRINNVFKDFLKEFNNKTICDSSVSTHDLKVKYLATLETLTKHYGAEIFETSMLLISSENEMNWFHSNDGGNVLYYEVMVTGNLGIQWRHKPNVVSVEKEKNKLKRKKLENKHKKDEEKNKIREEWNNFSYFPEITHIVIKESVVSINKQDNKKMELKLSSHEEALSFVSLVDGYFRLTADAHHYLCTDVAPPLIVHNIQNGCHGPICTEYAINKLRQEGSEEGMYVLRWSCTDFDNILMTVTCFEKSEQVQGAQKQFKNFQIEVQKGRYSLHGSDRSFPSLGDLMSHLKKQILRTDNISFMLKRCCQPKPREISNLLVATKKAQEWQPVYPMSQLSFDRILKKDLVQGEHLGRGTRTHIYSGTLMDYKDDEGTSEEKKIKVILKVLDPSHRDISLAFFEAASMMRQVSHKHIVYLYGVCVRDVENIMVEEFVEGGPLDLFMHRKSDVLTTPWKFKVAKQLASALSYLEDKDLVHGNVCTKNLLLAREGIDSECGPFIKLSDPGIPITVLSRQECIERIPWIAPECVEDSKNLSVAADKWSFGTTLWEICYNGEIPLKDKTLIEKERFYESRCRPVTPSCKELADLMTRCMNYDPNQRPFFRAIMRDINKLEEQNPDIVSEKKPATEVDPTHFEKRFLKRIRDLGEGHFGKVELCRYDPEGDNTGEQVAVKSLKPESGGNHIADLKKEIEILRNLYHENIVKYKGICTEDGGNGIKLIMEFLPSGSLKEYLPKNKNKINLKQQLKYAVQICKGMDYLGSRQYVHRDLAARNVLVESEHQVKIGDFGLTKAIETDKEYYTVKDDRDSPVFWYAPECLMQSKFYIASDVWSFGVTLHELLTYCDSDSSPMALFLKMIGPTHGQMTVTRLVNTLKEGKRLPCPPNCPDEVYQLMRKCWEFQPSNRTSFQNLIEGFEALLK

## O=C(CCCCCCC(=O)Nc1ccc(-c2ccnc(Nc3ccc(N4CCOCC4)cc3)n2)cc1)NO
[1]
  IC50: 3.1 nM
[2]
  IC50: 80.1 nM
[3]
  IC50: 79.4 nM
[4]
  IC50: 52.1 nM
Homo sapiens
  Ratio IC50: 25.8
MDA-MB-231 [5]
  IC50: 990 nM
MCF7 [6]
  IC50: 700 nM
PC-3 [7]
  IC50: 640 nM
[8]
  CC50 at 72 h: 3980 nM
[9]
  selectivity ratio: 3.79
[10]
  selectivity ratio: 6.09
[11]
  selectivity ratio: 9.13
[12]
  selectivity ratio: 6.22
[13]
  selectivity ratio: 9.98
PC-3 [14]
  Activity: 39.88%
PC-3 [15]
  Activity: 13.06%
PC-3 [16]
  Activity: 1.37%
HCT-116 [17]
  Activity: 31.19%
HCT-116 [18]
  Activity: 12.12%
MCF7 [19]
  Activity: 37.54%
MCF7 [20]
  Activity: 29.26%
MDA-MB-231 [21]
  Activity: 10.29%
MDA-MB-231 [22]
  Activity: 39.98%
